Data set [1] concerns the target T1, Muscarinic acetylcholine receptor M2 (Homo sapiens, UniProt P08172).
T1 sequence (P08172 whole entry): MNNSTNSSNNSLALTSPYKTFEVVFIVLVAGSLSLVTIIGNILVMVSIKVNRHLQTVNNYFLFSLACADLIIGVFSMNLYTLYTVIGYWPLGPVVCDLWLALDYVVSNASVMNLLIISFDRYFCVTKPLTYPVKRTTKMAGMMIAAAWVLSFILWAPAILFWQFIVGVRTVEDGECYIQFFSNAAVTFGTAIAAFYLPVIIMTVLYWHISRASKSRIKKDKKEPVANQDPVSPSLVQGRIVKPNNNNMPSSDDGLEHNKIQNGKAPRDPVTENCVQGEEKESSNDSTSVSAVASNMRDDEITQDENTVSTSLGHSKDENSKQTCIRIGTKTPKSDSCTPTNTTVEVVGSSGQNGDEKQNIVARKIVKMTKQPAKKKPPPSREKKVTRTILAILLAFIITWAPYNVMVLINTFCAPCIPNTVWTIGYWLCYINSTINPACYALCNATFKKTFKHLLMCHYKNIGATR
Description: Positive allosteric modulation of human M2 receptor/Gqi5 in presence of EC20 acetylcholine by calcium mobilization assay.

For data set [2], the target named is T2, Muscarinic acetylcholine receptor M1 (Homo sapiens) (UniProt P11229).
T2 sequence (whole entry): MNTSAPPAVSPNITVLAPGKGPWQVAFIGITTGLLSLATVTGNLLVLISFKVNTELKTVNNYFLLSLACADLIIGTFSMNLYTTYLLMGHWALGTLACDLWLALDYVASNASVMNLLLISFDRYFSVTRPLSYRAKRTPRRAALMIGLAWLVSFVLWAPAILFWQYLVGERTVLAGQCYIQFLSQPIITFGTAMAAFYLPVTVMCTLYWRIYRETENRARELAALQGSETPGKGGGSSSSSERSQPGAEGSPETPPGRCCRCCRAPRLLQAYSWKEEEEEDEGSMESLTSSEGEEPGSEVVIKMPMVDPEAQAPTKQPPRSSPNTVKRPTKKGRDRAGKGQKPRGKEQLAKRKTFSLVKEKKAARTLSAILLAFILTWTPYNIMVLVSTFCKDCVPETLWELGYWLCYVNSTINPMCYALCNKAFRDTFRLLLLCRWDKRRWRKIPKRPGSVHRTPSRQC
In words: Positive allosteric modulation of human M1 receptor.

The target in data set [3] is T3, Muscarinic acetylcholine receptor M5 (Homo sapiens) (UniProt P08912).
T3 sequence (whole entry): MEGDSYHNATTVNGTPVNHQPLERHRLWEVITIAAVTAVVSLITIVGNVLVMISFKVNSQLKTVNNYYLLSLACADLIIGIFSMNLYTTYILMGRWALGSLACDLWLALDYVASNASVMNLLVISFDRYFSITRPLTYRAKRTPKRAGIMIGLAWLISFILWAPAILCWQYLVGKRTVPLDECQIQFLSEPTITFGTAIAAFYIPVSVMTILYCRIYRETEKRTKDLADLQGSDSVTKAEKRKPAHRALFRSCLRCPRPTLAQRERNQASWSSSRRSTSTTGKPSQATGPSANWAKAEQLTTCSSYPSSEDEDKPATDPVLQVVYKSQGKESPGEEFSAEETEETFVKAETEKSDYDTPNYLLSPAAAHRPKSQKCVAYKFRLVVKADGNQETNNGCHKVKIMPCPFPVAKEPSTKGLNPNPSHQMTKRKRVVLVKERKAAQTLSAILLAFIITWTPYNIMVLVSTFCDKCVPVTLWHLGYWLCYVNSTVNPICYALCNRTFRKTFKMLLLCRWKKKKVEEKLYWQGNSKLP
Description: Positive allosteric modulation of human M5 receptor.

Data set [4] addresses Muscarinic acetylcholine receptor M3 (Homo sapiens, UniProt P20309). In words: Positive allosteric modulation of human M3 receptor.
The target in data set [5] is T4, Muscarinic acetylcholine receptor M4 (Homo sapiens, UniProt P08173).
T4 sequence (P08173 whole entry): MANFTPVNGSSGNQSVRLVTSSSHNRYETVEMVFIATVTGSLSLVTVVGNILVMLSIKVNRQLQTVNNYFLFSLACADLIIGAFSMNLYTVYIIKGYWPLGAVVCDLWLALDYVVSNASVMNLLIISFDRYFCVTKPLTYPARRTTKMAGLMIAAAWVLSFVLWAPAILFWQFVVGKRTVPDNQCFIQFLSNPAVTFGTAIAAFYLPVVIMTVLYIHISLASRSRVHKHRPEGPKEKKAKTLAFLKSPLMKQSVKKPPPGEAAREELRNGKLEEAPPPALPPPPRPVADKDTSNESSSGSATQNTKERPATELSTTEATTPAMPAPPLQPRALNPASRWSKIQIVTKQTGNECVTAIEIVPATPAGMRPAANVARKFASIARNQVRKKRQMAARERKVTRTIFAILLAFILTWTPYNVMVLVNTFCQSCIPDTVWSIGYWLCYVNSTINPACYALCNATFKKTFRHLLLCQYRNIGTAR
In words: Positive allosteric modulation of human M4 receptor/Gqi5 in presence of EC20 acetylcholine by calcium mobilization assay. In kind it is functional.

For data set [6], the target named is T5, Muscarinic acetylcholine receptor M4 (Homo sapiens) (UniProt P08173).
T5 sequence (whole entry): T4 sequence (P08173 whole entry)
Description: Positive allosteric modulation of human M4 receptor/Gqi5 in presence of EC20 acetylcholine by calcium mobilization assay relative to acetylcholine. In kind it is functional. To be noted: filed as positive allosteric modulator.

Data set [7] concerns the target T1, Muscarinic acetylcholine receptor M2. In words: Positive allosteric modulation of human M2 receptor/Gqi5 in presence of EC20 acetylcholine by calcium mobilization assay relative to acetylcholine. The note with it: read-out: %max.
Data set [8] can be described thus: Fraction unbound in rat brain. In kind it is ADME, tissue-based.
Data set [9] is described as follows: Hepatic clearance in rat. The format is ADME. To be noted: in vivo.
Data set [10] is described as follows: Unbound brain-to-plasma concentration ratio in Sprague-Dawley rat at 0.1 to 0.2 mg/kg, iv measured after 0.25 hrs. The format is ADME, organism-based. To be noted: dose 0.1-0.2 mg/kg, read-out: K(p,uu,brain).
Data set [11] is described as follows: Brain to plasma permeability coefficient, Kp in Sprague-Dawley rat at 0.1 to 0.2 mg/kg, iv measured after 0.25 hrs. In kind it is ADME, organism-based. The note with it: dose 0.1-0.2 mg/kg.
A short description of data set [12]: Fraction unbound in rat plasma. In kind it is ADME, cell-free.
A short description of data set [13]: Fraction unbound in human plasma. The format is ADME, cell-free.

Active and inactive are the calls of the source. The rule behind the calls is not given here.

Sequence of Muscarinic acetylcholine receptor M3 (P20309 whole entry, looked up): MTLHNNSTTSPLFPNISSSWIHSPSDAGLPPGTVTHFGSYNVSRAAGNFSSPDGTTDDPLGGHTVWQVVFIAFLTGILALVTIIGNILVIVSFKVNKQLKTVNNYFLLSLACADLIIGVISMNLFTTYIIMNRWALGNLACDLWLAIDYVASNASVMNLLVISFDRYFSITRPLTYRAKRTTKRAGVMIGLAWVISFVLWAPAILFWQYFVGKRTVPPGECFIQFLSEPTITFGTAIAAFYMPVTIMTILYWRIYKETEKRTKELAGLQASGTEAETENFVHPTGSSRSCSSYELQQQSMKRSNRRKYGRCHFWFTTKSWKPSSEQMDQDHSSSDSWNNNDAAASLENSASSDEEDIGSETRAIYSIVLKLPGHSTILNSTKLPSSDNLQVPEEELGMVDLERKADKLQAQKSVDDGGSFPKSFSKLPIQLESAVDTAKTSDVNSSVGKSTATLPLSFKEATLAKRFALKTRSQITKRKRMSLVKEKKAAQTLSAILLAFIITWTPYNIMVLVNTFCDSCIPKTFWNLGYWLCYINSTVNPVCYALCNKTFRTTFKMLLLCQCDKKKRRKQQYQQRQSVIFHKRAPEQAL

As to `Cc1c(O)nnc2sc(C(=O)NC3CN(c4ncc(C(F)(F)F)cn4)C3)c(N)c12`, the EC50 in [1] was > 30000 nM; in data set [5], 6720 nM. In addition, the outcome in data set [2], in data set [3] and in [4] was inactive. Besides, the %max in data set [6] was determined as 45%.

Consider `Cc1nc(Cl)c(C)c(N2CC(NC(=O)c3sc4nnc(Cl)c(C)c4c3N)C2)n1`, for which the EC50 in data set [1] was > 30000 nM; in data set [5], 100 nM. Also, the outcome in data set [2], in [3] and in [4] was inactive. Also, the %max in data set [6] came out at 84%.

On to `COCCOc1nnc2sc(C(=O)NC3CN(c4ncc(C(F)(F)F)cn4)C3)c(N)c2c1C`, for which the EC50 in [1] is > 30000 nM; in data set [5] it was 180 nM. Further, the result in data set [2], in data set [3] and in [4] was inactive. Moreover, in data set [6], the %max stood at 48%.

Turning to `CCc1nnc2sc(C(=O)NC3CN(c4ncc(C(F)(F)F)cn4)C3)c(N)c2c1C`, the values for the EC50 in data set [1] and in data set [5] were > 30000 nM and 510 nM, respectively. In addition, the outcome in data set [2], in data set [3] and in [4] was inactive. The %max in [6] stood at 77%.

On to `Cc1c(CN(C)C)nnc2sc(C(=O)NC3CN(c4ncc(C(F)(F)F)cn4)C3)c(N)c12`, for which the EC50 in data set [1] and in [5] was > 30000 nM each time. The result in [2], in [3] and in [4] was inactive.

On to `Cc1c(Cl)nnc2sc(C(=O)NC3CN(c4ccnc(F)c4Cl)C3)c(N)c12`, for which the EC50 is > 30000 nM in data set [1] and 70 nM in [5]. The outcome in data set [2], in data set [3] and in data set [4] was inactive. Moreover, in [6], the %max was 72%.

As to `Cc1c(Cl)nnc2sc(C(=O)NC3CN(c4cccnc4)C3)c(N)c12`, the EC50 in data set [1] came out at 1100 nM; in data set [5] it was 20 nM. Also, the outcome in [2], in data set [3] and in data set [4] was inactive. Moreover, in data set [7], the Emax was 64%. In addition, the %max in data set [6] is 86%.

Regarding `Cc1c(Cl)nnc2sc(C(=O)NC3CN(c4ncc(C(F)(F)F)cn4)C3)c(N)c12`, the EC50 is > 30000 nM in [1] and 60 nM in [5]. In addition, the fraction unbound was 0.037 in data set [8], 0.022 in data set [12] and 0.022 in data set [13]. In addition, the result in data set [2], in data set [3] and in data set [4] was inactive. In [9], this compound yielded a CLH of 51.9 mL/min/kg. Also, the Kp uu at 0.25 h in data set [10] was 0.17. The same compound displayed a Kp at 0.25 h in data set [11] of 0.1. In data set [6], the %max was found to be 78%.

Turning to `Cc1c(Cl)nnc2sc(C(=O)NC3Cc4ccccc4C3)c(N)c12`, the EC50 in [5] was found to be 10 nM. In addition, the %max in [6] was found to be 73%.

Consider `Cc1cnnc2sc(C(=O)NC3Cc4ccccc4C3)c(N)c12`, for which, in data set [5], the EC50 turned out to be 60 nM. For the same compound, in data set [6], the %max stood at 81%.

For the compound `Cc1c(Cl)nnc2sc(C(=O)NC3CN(c4nnc(CC(C)C)o4)C3)c(N)c12`, the EC50 in data set [1] was > 10000 nM; in data set [5], 230 nM. For the same compound, the outcome in data set [2], in data set [3] and in data set [4] was inactive. Further, the Emax in data set [7] turned out to be 62%. In addition, in [6], the %max came to 47%.

In the case of `Cc1c(C(C)C)nnc2sc(C(=O)NC3CN(c4ncc(C(F)(F)F)cn4)C3)c(N)c12`, the EC50 in data set [1] is > 30000 nM; in [5], 540 nM. In addition, the result in data set [2], in data set [3] and in data set [4] was inactive. Also, the %max in [6] was determined as 56%.

With `Cc1c(O)nnc2sc(C(=O)NC3Cc4ccccc4C3)c(N)c12`, the EC50 in data set [5] came to 290 nM. Besides, in [6], the %max was 71%.

As for `Cc1c(Cl)nnc2sc(C(=O)NC3CN(c4cnc(Cl)cn4)C3)c(N)c12`, the figures for the EC50 in data set [1] and in data set [5] were 400 nM and 140 nM, respectively. Besides, the outcome in data set [2], in [3] and in data set [4] was inactive. Further, in data set [7], the Emax was 40%. In addition, the %max in [6] is 99%.

Turning to `Cc1nnc2sc(C(=O)NC3Cc4ccccc4C3)c(N)c2c1C`, the EC50 in data set [5] is 20 nM. For the same compound, the %max in [6] is 79%.

For the compound `COc1nnc2sc(C(=O)NC3Cc4ccccc4C3)c(N)c2c1C`, the EC50 in data set [5] was found to be 20 nM. In addition, in data set [6], the %max worked out at 83%.

For `Cc1cc(C2CC2)ncc1N1CC(NC(=O)c2sc3nnc(Cl)c(C)c3c2N)C1`, the EC50 in [1] was 870 nM; in data set [5], 150 nM. The outcome in data set [2], in data set [3] and in data set [4] was inactive. The Emax in [7] was 33%. Moreover, the %max in data set [6] was 90%.

Take `Cc1c(CO)nnc2sc(C(=O)NC3CN(c4ncc(C(F)(F)F)cn4)C3)c(N)c12`: the EC50 in [1] is > 30000 nM; in [5] it was 1170 nM. Besides, the result in data set [2], in [3] and in data set [4] was inactive. In addition, the %max in [6] amounted to 75%.

Take `Cc1c(Cl)nnc2sc(C(=O)NC3CN(c4ccc(C5CC5)nn4)C3)c(N)c12`: the EC50 in data set [1] is > 5000 nM; in [5] it was 120 nM. Also, the outcome in data set [2], in [3] and in data set [4] was inactive. The Emax in data set [7] was 43%. For the same compound, the %max in data set [6] worked out at 94%.

On to `Cc1c(Cl)nnc2sc(C(=O)NC3CN(c4ncncc4C#N)C3)c(N)c12`, for which the EC50 was > 30000 nM in data set [1] and 220 nM in data set [5]. The outcome in data set [2], in data set [3] and in [4] was inactive. For the same compound, in [6], the %max stood at 65%.

For `Cc1c(Cl)nnc2sc(C(=O)NC3CN(c4cc(Cl)ncc4Cl)C3)c(N)c12`, the EC50 in [1] was > 30000 nM; in [5] it was 30 nM. The outcome in data set [2], in data set [3] and in data set [4] was inactive. In data set [6], the %max was determined as 59%.

Values taken from ChEMBL document CHEMBL4665653, “VU6005806/AZN-00016130, an advanced M positive allosteric modulator (PAM) profiled as a potential preclinical development candidate” (Bioorg Med Chem Lett, 2019).
